Source: patent publication US20090247520A1, “INHIBITORS OF ANTIGEN RECEPTOR-INDUCED NF-kappa B ACTIVATION” (The Burnham Institute for Medical Research, priority 2008, published 2009)
“Also recorded” adds a separate entry of the source.

Key:
Assay type in all cases: cell-based
[1] = tested on: MDP (NOD2) induced IL-6; assay: IL-6 in THP.1 cell cultures stimulated with MDP; conditions: data not shown
Description: (§1) FIG. 1 is a flow chart of screening and counter-screenings for selective inhibitors of antigen-receptor induced NF-κB pathway. A total of 114,889 compounds were screened. From a screen of 53,280 commercially available compounds (left column), 519 hits were obtained, of which 248 reconfirmed using the same primary screening assay. […] From these 11 active compounds, one hit, CID-2858522, inhibited PMA/Ionomycin-induced production of cytokine IL-8 by the HEK293 cell line. CID-2858522 was then characterized (right column). PDB was substituted for PMA to confirm suppression of an alternative PKC activator. Pathway selectivity was assessed using panels of cell lines, starting with HEK293 cells in which each of the remaining NF-κB activation pathways was stimulated, showing inhibition only of PMA/Ionomycin-induced NF-κB reporter gene activity (panel 1). […]

[2] = tested on: γ-TriDAP (NOD1 agonist) stimulated IL-8 production; assay: IL-8 production by MCF7 cells stimulated with γ-TriDAP; conditions: listed as CID-2858522
Description: as §1

[3] = tested on: PMA/Ionomycin-induced p65-RelA DNA-binding activity; assay: NF-κB p65 DNA-binding activity, PMA/Ionomycin-stimulated HEK293 cells
Experimental: (A) Structures of two hit compounds, CID-2858522 (left) and CID-2998237 (right) are shown; (B, C) 293-NF-κB-luc cells were pretreated for 2 hrs with various concentration of either CID-2858522 (B) or CID-29982387 (C) and then stimulated with TNF (10 ng/mL) or PMA/lonomycin (10 ng/mL; 5 ng/mL) for 16 h. Luciferase activity was measured and data were expressed as a percentage relative to control treatment with DMSO only (mean±SD; n=3). (D) 293-NF-κB-luc cells were pretreated for 2 h with various concentrations of CID-2858522 or CID-2998237, then stimulated with PMA/lonomycin for 16 h. IL-8 release into the medium was measured, expressing data as a percentage relative to control cultures treated with DMSO (mean±SD; n=3). (E) 293-NF-κB-luc cells were pretreated with CID-2858522 and then stimulated with PDBu for 16 h, IL-8 production and NF-κB luciferase activity were measured as above. (F) 293-NF-κB-luc cells were pretreated for 2 h with various concentrations of CID-2858522 or a PKC inhibitor (Bisindolylmaleimide I) at 1 μM followed by PMA/Ionomycin (10 ng/mL) stimulation for 2 h, then p65-DNA-binding activity was measured in nuclear extracts (10 μg protein), expressing data as fold-increase relative to unstimulated cells (mean±SD; n=3).
NF-κB DNA-binding activity assays. Nuclear extracts were prepared from 10 cm^2 plates of confluent cells using a kit (Active Motif, Carsbad, Calif.). The total protein content of nuclear fractions was quantified by the Bradford method, followed by storage at −80° C. NF-κB DNA-binding activity was measured in nuclear extracts (10 μg protein) using an immunoassay method (TransAM Kit [Active Motif]) employing 96 well plates coated with double-strand oligodeoxynucleotides containing NF-κB consensus binding site (5′-[…]-3′) and anti-p65 antibody, which was detected by secondary horseradish peroxidase (HRP)-conjugated antibody, using a calorimetric substrate with absorbance read at 450 nm within 5 minutes using a spectrophotometer, SpectraMax M5 (Molecular Devices, Sunnyvale, Calif.).

Cc1cc2nc(NCCCO)n(CC(=O)c3cc(C(C)(C)C)c(O)c(C(C)(C)C)c3)c2cc1C [Compound 1, 2-(2-(3-Hydroxypropylamino)-5,6-dimethyl-1H-benzo[d]imidazol-1-yl)-1-(3,5-di-tert-butyl-4-hydroxyphenyl)ethanone]
inhibition of MDP-induced NF-κB (IL-6 in THP.1) [1]: failed to inhibit | suppression of IL-8 production, γ-TriDAP-stimulated MCF7 [2]: failed to inhibit; also recorded: did not suppress | concentration of maximal suppression of NF-κB DNA-binding activity ([3]; HEK293): ~1 µM | lowest concentration with evident suppression of NF-κB DNA-binding activity ([3]; HEK293): 0.1 µM | inhibition of p65-RelA DNA-binding activity ([3]; compared to PKC inhibitor): only partially inhibited
